Experimental findings from PubChem BioAssay AID179 (DTP/NCI, 2004) are described below.

The test system of the assay is CEM cells HIV-1 protection, formazan growth assay. The assay can be described thus: NCI AIDS Antiviral Assay. The following applies: for IC50: measured here: growth of uninfected CEM cells. In short, it runs like this:
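CEM (human) cells, HIV-1 infected vs uninfected, 5-point dosing, formazan growth read-out. Retest threshold 50% protection.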

As usually defined, the EC50 is the concentration giving half of the maximal effect. A word on the IC50: it is the midpoint of a concentration-inhibition curve. A low value points to inhibition by little substance.

“And” between values parts separate entries of the source, which are not always exact repeats. Identical values can stand only once. The source made the active and inactive calls.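 Rule for the calls: active = compounds giving half or more protection of infected cells from virus-caused growth loss, again on retest; inactive = the rest.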

As for `O=C1c2ccccc2C(=O)[C@@]23O[C@@]12C1(Oc2cccc4cccc(c24)O1)[C@@H]1O[C@@H]1[C@@H]3O`, the EC50 was greater than 20 µM and the IC50 is 1.15 µM. For `O=S(=O)(O/C1=C/CCCCCC1)C(F)(F)F`, in that order: greater than 100 µM and greater than 100 µM.

Consider `COC1C2c3ccccc3C(C#N)(Cc3ccc4c(c32)OCO4)N1C(=O)c1ccccc1` (configuration not stated), for which the result was inactive. Regarding `CC(=O)ON1C(c2ccc([N+](=O)[O-])cc2)OCC2OC(n3cc(C)c(=O)[nH]c3=O)C[C@H]21` (some centres not stated), the EC50 is greater than 200 µM and the concentration for half-maximal inhibition (IC50) was greater than 200 µM.

In the case of `CCC(C)C1(O)OC2CC3(C)OC(=CC3=O)/C(C)=C\C3OC(=O)C1(C)C32` (configuration not stated), the EC50 is greater than 138 µM and the half-maximal inhibitory concentration (IC50) worked out at 7.59 µM. With `S=P(N1CC1)(N1CC1)N1CC1`, the EC50 was greater than 1320 µM and the IC50 was determined as 3.16 µM.

As to `C=CC(C)(C)C1Oc2cc(O)ccc2C(=O)C1c1ccc(OC)c(OC)c1O` (configuration not stated), the EC50 is greater than 200 µM and the IC50 worked out at 3.09 µM.

Regarding `COc1cc(NS(=O)(=O)c2ccc(C(C)=O)cc2)nc(OC)n1`, the EC50 was greater than 200 µM and the half-maximal inhibitory concentration (IC50) is greater than 200 µM. Turning to `CN(C)C1(C(=O)O)CC1`, the EC50 was greater than 200 µM and the IC50 is greater than 200 µM.

In the case of `CC/C(=C(\c1ccccc1)c1ccc(OCC[N+](C)(C)C)cc1)c1ccccc1`, the result was inactive. With `C/C1=C/C(=O)O[C@@H]2C[C@@H](CC[C@H](C)/C=C\C=C\CC1)O[C@@](O)([C@@H]1CSC(=O)N1)C2`, the EC50 is greater than 2 µM and the half-maximal inhibitory concentration (IC50) came out at 0.363 µM. Consider `CCCC/C=C(/C(O)[C@]1(C)OC(=O)N2CCC[C@H]21)[Si](C)(C)C` (some centres not stated), for which the EC50 is greater than 759 µM and the IC50 is greater than 759 µM.

With `COc1cc2c(c(OC)c1OC)C(c1ccc3c(c1)OCO3)C1COC(=O)C1C2` (configuration not stated), the EC50 is greater than 91.2 µM and the IC50 is greater than 91.2 µM. As for `CCCCNC(=O)/N=C/c1c(O)c2ccccc2oc1=O`, the EC50 is greater than 91.2 µM and the IC50 was 58.9 µM. For `Cc1ccc2c(c1C)CC1(Cc3c(ccc4c3CCC4)C1=O)C2=O` (configuration not stated), in that order: greater than 100 µM and greater than 100 µM. For `COc1c2c(c(Cl)c3ccc(=O)oc13)CCO2`, in that order: greater than 70.8 µM and greater than 70.8 µM. For `CC1CCC2(OCCO2)[C@]2(C)CC(O)C(=O)C=C12` (some centres not stated), the result was inactive. As to `CCCCCn1cnc2c1S(=O)(=O)N(C)C(NC(=O)c1ccccc1)=N2`, the EC50 was greater than 200 µM and the IC50 is greater than 200 µM. With `NC(=O)c1nnsc1-c1ccco1`, the EC50 was greater than 200 µM and the IC50 was greater than 200 µM.

Turning to `O=C1OC(c2ccc(Cl)cc2)(c2ccc(Cl)cc2)c2c1ccc1ccccc21`, the result was inactive. Regarding `CC1(C)OCN(c2ccc(N3CCOCC3)cc2)Cn2c1nc1ccccc12`, the EC50 is greater than 200 µM and the IC50 came out at 64.6 µM. For `CCCNc1c(Cl)cc(Cl)c2[nH]c3ccccc3c(=O)c12`, in that order: greater than 200 µM and 23.4 µM. For `CCOC(=O)C1(C/C=C\CBr)CCCCCCCCCCC1=O` (configuration not stated), in that order: greater than 200 µM and 0.933 µM. Turning to `CC1(C)C=CC2=C(O1)C(=O)c1ccccc1C2=O`, the EC50 is greater than 200 µM; the IC50 is 32.4 µM and 26.9 µM. For the compound `Nc1nc(N)c(C2=CCN(Cc3ccccc3)CC2)c(=O)[nH]1`, the EC50 was greater than 200 µM and the IC50 was greater than 200 µM. In the case of `O=C1CCCC12CCOC2=O` (configuration not stated), the EC50 was greater than 1620 µM and the IC50 was greater than 1620 µM. Regarding `COc1cc(-c2cc(=O)c3c(O)c(OC)c(OC)c(OC)c3o2)ccc1O`, the EC50 is greater than 132 µM and the IC50 is 9.33 µM.

As for `Cc1ccc2nc(NC(=O)C(=O)CC(=O)c3cccc4ccccc34)sc2c1`, the EC50 was greater than 33.9 µM and the IC50 was greater than 33.9 µM. Consider `COc1c2c(cc3oc(C)c(C)c(=O)c13)OC(C)(C)C=C2`, for which the EC50 is greater than 200 µM and the IC50 amounted to 81.3 µM. For `COc1ccccc1C1(c2c(OC(C)C)c(=O)c2=O)SCCCS1`, in that order: greater than 200 µM and 138 µM.

As to `CC1=NN(C(=O)c2ccccc2O)C(=O)/C1=C/c1ccco1`, the EC50 is greater than 87.1 µM and the IC50 was 0.603 µM. For `COC(=O)[C@@H]1C[C@]2(Br)c3ccccc3N(S(=O)(=O)c3ccccc3)[C@@H]2N1C(=O)OC`, in that order: greater than 200 µM and 138 µM. For `Cc1ccccc1NC(=S)N=Nc1c(O)[nH]c2ccccc12`, in that order: greater than 200 µM and greater than 200 µM. For `CCSCCCCCCCCCCC(=O)OCC1OC(n2cc(C)c(=O)[nH]c2=O)CC1F` (configuration not stated), in that order: 0.0132 µM and 0.2 µM. As to `CC(=O)N1CN=C2Sc3ccccc3N2C1`, the EC50 is greater than 200 µM and the IC50 was greater than 200 µM.

As to `Cc1ccc2c(c1)C(=S)N1CSCC1c1nncn1-2` (configuration not stated), the EC50 is greater than 200 µM and the IC50 was greater than 200 µM. Regarding `CCCCNC(=O)OCCN=C1c2ccccc2C(Br)C(Br)c2ccccc21` (configuration not stated), the EC50 was greater than 200 µM and the concentration for half-maximal inhibition (IC50) is 26.9 µM. For `Cn1cc(NC(=O)c2cc(NC(=O)c3cc(NC(=O)/C=C/C(=O)O)cn3C)cn2C)cc1C(=O)NCCC(=N)N`, in that order: greater than 100 µM and 89.1 µM. Take `Cc1ncc(CO)c(CO)c1OCC(O)CN1CCN(C(=O)c2ccccc2)CC1` (configuration not stated): the EC50 was greater than 200 µM and the half-maximal inhibitory concentration (IC50) was greater than 200 µM. For the compound `Cc1cc2c3c(c1)C(=O)CCN3CCC2=O`, the result was inactive. With `O=C(O)c1ccccc1-c1c2ccc(=Nc3ccccc3)cc-2oc2cc(Nc3ccc(S(=O)(=O)O)cc3)ccc12`, the EC50 is 14.1 µM and the IC50 is greater than 200 µM. For `Cc1c(-c2coc(-c3ccc(Cl)cc3)n2)c(=O)n(-c2ccccc2)n1C`, in that order: greater than 51.3 µM and greater than 51.3 µM. Regarding `COc1cc(/C=C(\NC(=O)c2ccccc2)c2nc3[nH]c(=S)[nH]c(=O)c3[nH]2)cc(OC)c1OC`, the result was inactive. Same read-out and setting: the entry for `C[N+](C)(C)CC(=O)N/N=C(\C(=O)NC1=C(Cl)C(=O)c2ccccc2C1=O)C(C#N)c1csc(-c2ccc([N+](=O)[O-])cc2)n1` (configuration not stated) is “inactive”.

Consider `O=C1CC(c2ccc([N+](=O)[O-])cc2)=Nc2ccccc2N1`, for which the EC50 is greater than 200 µM and the IC50 was greater than 200 µM. Take `O=C(O)CCCCCCCCCCCCCCC(=O)O`: the EC50 was greater than 18.2 µM and the IC50 was greater than 18.2 µM. Turning to `CCN1OC(C)(C)C2CCC(C)CC21` (configuration not stated), the EC50 is greater than 1260 µM and the IC50 is greater than 1260 µM. In the case of `COC(=O)c1cc(Br)c(C(=O)C(Cl)(Cl)Cl)[nH]1`, the EC50 was greater than 200 µM and the IC50 is greater than 200 µM. On to `CC(=O)OC[C@]12[C@H](OC(C)=O)[C@H](OC(C)=O)[C@@H]3C(OC(C)=O)[C@@]14OC3(C)COC(=O)c1cccnc1CCC(C)C(=O)OC([C@H](OC(C)=O)[C@@H]2OC(=O)c1ccccc1)[C@]4(C)O` (some centres not stated), for which the EC50 was greater than 38.9 µM and the IC50 is greater than 38.9 µM. On to `Cc1ccc2ccc(-c3cc4ccccc4s3)nc2c1`, for which the result was inactive. For `O=C(CC(C(=O)c1cccs1)c1ccccc1)c1ccccc1O` (configuration not stated), the EC50 is greater than 200 µM and the IC50 was 115 µM. For `C=CCOC1CC(n2cnc3c(N)ncnc32)OC1CO` (configuration not stated), in that order: greater than 200 µM and greater than 200 µM.

For `CCNC(CCCC(NCC)P(=O)(O)O)P(=O)(O)O` (configuration not stated), the outcome was inactive.

For `CC/C(Cl)=N\OC(=O)Nc1ccc(C#N)cc1`, the EC50 was greater than 200 µM and the IC50 stood at 18.2 µM. For `CN(CC(=O)Nc1ccccc1C(=O)O)c1ccccc1`, in that order: greater than 200 µM and 69.2 µM. Regarding `O=C(O)CCC(NC(=O)c1ccccc1)C(=O)O` (configuration not stated), the result was inactive. Turning to `COc1ccc(C(=O)C(C(=O)C(=O)Nc2nc3ccc(OC)cc3s2)c2ccc(OC)cc2)cc1` (configuration not stated), the EC50 is greater than 38 µM and the half-inhibitory concentration (IC50) was greater than 38 µM.

As for `N#CN=C(N)c1sc2nc3c(c(-c4ccc(Br)cc4)c2c1N)CCCC3`, the EC50 is greater than 200 µM and the IC50 came out at 7.08 µM. For `O=C(NCCCN1CCN(CCCNC(=O)c2cc(-c3ccccc3)nc3ccccc23)CC1)c1cc(-c2ccccc2)nc2ccccc12`, in that order: greater than 20 µM and 2.4 µM. With `CCC(=N\NC(N)=S)/C(C)=N/O`, the EC50 was greater than 200 µM and the IC50 is greater than 200 µM. Take `CC(C)(C)c1ccc(CN2CCN(C(c3ccccc3)c3ccc(Cl)cc3)CC2)cc1` (configuration not stated): the EC50 is greater than 200 µM and the IC50 was determined as 115 µM. For `Oc1ccc(SCc2cc(O)c(O)c(O)c2)cc1`, in that order: greater than 200 µM and 6.92 µM. For `CC1=NC(=Cc2ccc([N+](=O)[O-])cc2)C(=O)N1n1c(-c2ccccc2)nc2ccccc2c1=O`, in that order: greater than 200 µM and 34.7 µM. In the case of `NC(=O)CC(N)C(=O)NC(Cc1ccccc1)C(=O)NC(Cc1ccccc1)NC(=O)C(Cc1c[nH]c2ccccc12)C(=O)O` (configuration not stated), the EC50 was greater than 200 µM and the IC50 is greater than 200 µM.

Turning to `O=C(NNc1nc2cc(F)ccc2n2cccc12)c1cnccn1`, the EC50 was greater than 200 µM and the IC50 is 3.47 µM. For `C=C(C)[C@@H]1CC[C@]2(COC(=O)CC(C)CC(=O)O)CC[C@]3(C)[C@H](CC[C@@H]4[C@@]5(C)CC[C@H](OC(=O)CC(C)CC(=O)O)C(C)(C)[C@@H]5CC[C@]43C)[C@@H]12` (some centres not stated), in that order: greater than 200 µM and 19.1 µM. For `CCOC(=O)C1(C(=O)OCC)OC(=O)NC2=C1CCCC2`, in that order: greater than 832 µM and 145 µM. For `O=C(O)CCN1CCN(CCC(=O)O)CCN(CCC(=O)O)CC1`, in that order: greater than 200 µM and 18.2 µM. On to `Brc1ccc(SSc2ccc(Br)cc2)cc1`, for which the EC50 is greater than 200 µM; the IC50 is 9.12 µM and 3.39 µM. With `COc1ccc(/C=C/C(=O)c2sc(NC(=S)NC(=O)c3ccccc3F)nc2C)cc1OC`, the EC50 is greater than 74.1 µM and the IC50 is greater than 74.1 µM. `O=C1C(=O)N(c2cc(Cl)ccc2Cl)C(=O)C(=O)C1c1nc2ccccc2o1`: the EC50 was greater than 24.5 µM and the IC50 is greater than 24.5 µM.
